Laboratory results taken from ChEMBL document CHEMBL1128384, “Cardioselective antiischemic ATP-sensitive potassium channel openers. 2. Structure-activity studies on benzopyranylcyanoguanidines: modification of the benzopyran ring” (J Med Chem, 1995).

What was measured:
Format in all cases: functional
[1] = Ratio of anti-ischemic potency and vasorelaxant potency in rat.
[2] = organism: Rattus norvegicus; experiment: In vitro anti-ischemic potency was determined by measurement of concentration necessary for increase in time to contracture by 25% in the globally ischemic rat hearts
[3] = organism: Rattus norvegicus; experiment: Vasorelaxant potency was assessed by measurement of inhibition of methoxamine-contracted rat aorta
[4] = organism: Rattus norvegicus; experiment: Antiischemic potency was determined by increase in time to contracture at a concentration of 10 uM in the globally ischemic rat hearts

| Compound | Ratio [1] | EC25 [2] [µM] | IC50 [3] [µM] | Increase [4] [%] | Increase [2] [%] |
| --- | --- | --- | --- | --- | --- |
| CC1(C)Oc2cc(-c3ncco3)c(-c3ncco3)cc2[C@@H](NC(=O)Nc2ccccc2)[C@@H]1O | 9.3 | 13 | 1.4 |  |  |
| CC1(C)C[C@H](/N=C(\NC#N)Nc2ccccc2)c2cc(C#N)ccc21 | 8.5 | 22 | 2.6 |  |  |
| CC1(C)C[C@H](/N=C(\NC#N)Nc2ccccc2)c2cc(C#N)ccc2O1 |  |  | 14 | 0 |  |
| CC1(C)C=C(NC(=O)Nc2ccccc2)c2cc(C#N)ccc2O1 |  |  | 17 | 7 |  |
| CC(=O)O[C@H]1[C@H](NC(=O)Nc2ccccc2)c2cc(C#N)ccc2OC1(C)C |  |  | 4.4 | 3 |  |
| CC1(C)Oc2ccc(C#N)cc2[C@@H](NC(=O)Nc2ccccc2)[C@@H]1O |  | 5.1 |  |  |  |
| CC1(C)C[C@H](NC(=O)Nc2ccccc2)c2cc(C#N)ccc2O1 | 2.9 | 5.3 | 1.8 |  |  |
| CC1(C)Oc2ccc(C#N)cc2[C@@H](NC(=O)Nc2ccccc2)[C@H]1O | 16.5 | 103 | 6.2 |  |  |
| CC1(C)C[C@H](NC(=O)Nc2ccccc2)c2cc(C#N)ccc21 | 7.2 | 9.4 | 1.3 |  |  |
| CC(=O)c1ccc2c(c1)[C@@H](NC(=O)Nc1ccccc1)[C@H](O)C(C)(C)O2 | 3.8 | 4.5 | 1.2 |  |  |
| CC1(C)C=C(/N=C(\NC#N)Nc2ccccc2)c2cc(C#N)ccc2O1 |  |  | 6.9 | 0 |  |
| CC1(C)c2ccc([N+](=O)[O-])cc2[C@@H](NC(=O)Nc2ccccc2)[C@@H]1O | 36.1 | 6.5 | 0.18 |  |  |
| CC1(C)Oc2ccc(C(F)(F)F)cc2[C@@H](NC(=O)Nc2ccccc2)[C@@H]1O | 2.5 | 2.7 | 1.1 |  |  |
| N#Cc1ccc2c(c1)[C@@H](NC(=O)Nc1ccccc1)[C@H](O)CO2 |  |  |  | 6 |  |
| CC1(C)Oc2ccc(C#N)cc2[C@@H](/N=C(\NC#N)Nc2ccccc2)[C@H]1O (relative stereo) |  |  |  | 9 |  |
| CC1(C)Oc2cc(-c3ncco3)c(-c3ncco3)cc2[C@@H](/N=C(\NC#N)Nc2ccccc2)[C@@H]1O (relative stereo) |  |  | 8.8 |  | 6 |
| CC1(C)Oc2ccc(C#N)cc2[C@@H](/N=C(\NC#N)Nc2ccccc2)[C@@H]1O (relative stereo) | 7.9 | 11 | 1.4 |  |  |
| CC(=O)O[C@H]1[C@H](/N=C(\NC#N)Nc2ccccc2)c2cc(C#N)ccc2OC1(C)C (relative stereo) | 2.3 | 6 | 2.6 |  |  |
| N#CN/C(=N\[C@@H]1c2cc(C#N)ccc2OC[C@H]1O)Nc1ccccc1 (relative stereo) |  |  | 194 | 0 |  |
| CC(=O)c1ccc2c(c1)[C@@H](/N=C(\NC#N)Nc1ccccc1)[C@H](O)C(C)(C)O2 (relative stereo) | 2.1 | 8.5 | 4 |  |  |
| CC1(C)c2ccc([N+](=O)[O-])cc2[C@@H](/N=C(\NC#N)Nc2ccccc2)[C@@H]1O (relative stereo) | 18.8 | 10.7 |  |  |  |
| CC1(C)Nc2ccc(C#N)cc2[C@@H](/N=C(\NC#N)Nc2ccccc2)[C@@H]1O (relative stereo) |  |  |  | 0 |  |
| CC1(C)Oc2ccc(C(F)(F)F)cc2[C@@H](/N=C(\NC#N)Nc2ccccc2)[C@@H]1O (relative stereo) | 0.5 | 10 | 9.2 |  |  |
| CC1(C)Oc2ccc(N)cc2[C@@H](/N=C(\NC#N)Nc2ccccc2)[C@@H]1O (relative stereo) |  |  | 59.6 |  | 0 |
| CC1(C)Oc2ccc(C#N)cc2[C@@H](N2CCCC2=O)[C@@H]1O [CROMAKALIM] | 278.1 | 8.9 |  |  |  |
